The source of these data is US5262426A, “N,N'-cycloalkyl/alkyl carboxamide 4H-imidazo-[4,5-b]pyridine compounds as PAF antagonists” (G. D. Searle & Co., priority 1993, dated 1993).

One assay concerns bronchoconstriction. Conditions: cited from earlier work.
Assay [1] relates to arachidonic acid-induced platelet aggregation. Particulars: cited from earlier work.
For another assay, the system named is thromboxane synthetase. Conditions: cited from earlier work.
For assay [2], the target named is T1, PAF receptor (human platelet membrane preparation) (Homo sapiens, UniProt P25105).
T1 construct: human platelet membrane preparation; tissue Lifesource, Inc. (Glenview, Ill.); host or cells: human packed platelets (washed, freeze-thaw broken, membrane pellet)
In words: Assay A: Human Platelet Receptor Binding ([3H]PAF). Conditions: for IC50: 0.75 nM [3H]PAF, 30 minutes at 24° C. On the procedure:
Assay A: Human Platelet Receptor Binding
Compounds of the invention were evaluated for their ability to inhibit specific binding of [^3 H]PAF to human platelet membrane preparation. Human packed platelets were obtained from Lifesource, Inc. (Glenview, Ill.) and washed 3 times with 10 mM Trizma pH 7.0, 2 mM EDTA (dipotassium salt), 150 mM KCl and then once with 10 mM Trizma 7.4, 20 mM CaCl2. The platelets were broken by freezing in a dry ice-ethanol bath, followed by thawing in 24° C. water baths. The preparation was centrifuged (40,000 x g, 20 minutes, 4'C) and the pellet resuspended in 10 mM Trizma 7.4, 20 mM CaCl2, 5 mg/ml human albumin. Protein concentration in the platelet membrane preparation was determined by the Lowry method [0. H. Lowry et al, J. Biol. Chem., 193 265-275 (1951)]. Aliquots of the membrane preparation were stored at -70° C. Each preparation was characterized for PAF receptor number and dissociation constant (Kd). In binding assays 5 μl of test compound, solubilzed in DMSO, was added to polypropylene tubes along with 0.75 nM [^3 H]PAF and 200 mcl [0.075 nM] of membranes and 95 μl 10 mM Trizma 7.4, 20 mM CaCL2, 5 mg/ml human albumin. Tubes were incubated for 30 minutes at 24° C. The incubation was terminated by adding 4 ml of ice-cold 10 mM Trizma pH 7.4, 20 mM CaCl2 and 20 mg/ml BSA prior to vacuum filtration using Whatman GF/C filters. Filters were prepared and counted for a scintillation counter. All DPM values were corrected for background and isotope decay. Triplicate determinations for single doses were averaged. The amount of non-specific binding was subtracted from all dose averages, giving an amount of specific binding in all cases. The IC50 values for compounds of the invention determined by the Allfit program using percent displacement data. Allfit is a "basic" computer program for simultaneous curve fitting of a family of sigmoidal dose-response curves using the four parameter logistic equation.

For a further assay, the system named is human platelets. In words: Assay B: Human Platelet Aggregation Inhibition (PAF-induced, platelet-rich plasma). The format is cell-based. Particulars: 37°. The protocol:
Assay B: Human Platelet Aggregation Inhibition
A compound of the invention was evaluated for ability to inhibit PAF-induced aggregation of human platelets in a human-platelet-rich plasma. Venous blood was collected from donors who fasted for 8 hours and were instructed not to use antiinflammatory drugs for 2 weeks prior to blood draw. Blood was collected into syringes containing 0.1 ml of 3.8% [w/v] citrate and centrifuged in polypropylene tubes at 150xg for 20 minutes at room temperature. The platelet rich plasma [PRP] was collected and let sit for 20 minutes at room temperature. Platelet activating factor [PAF] was diluted in 0.9% NaCl with 0.25% bovine serum albumin. Silicon treated cuvettes with stir bars were placed in the 37° heating block of the platelet aggregometer [Bio/Data Corporation, Platelet Aggregation Profiler, Model PAP-4]. PRP and test compound were added to cuvettes and aggregation monitored for 10-15 seconds at 37° with stirring. PAF was added and aggregation monitored for an additional 3 minutes. Peak aggregation was considered the peak of the first aggregation wave usually 45-60 seconds after PAF addition. Inhibition of aggregation was determined by the following: 1- [(% aggregation in the presence of compound).div.(% maximal aggregation)]. A log/logit transformation was used to determine half maximal inhibitory concentration of a test compound [IC50 ].

In the next assay the test system is PAF-induced aggregation. Conditions: human platelet-rich plasma; cited from earlier work.

What is called IC50 is the concentration that gives 50% inhibition. High values mean a need for much substance, low ones inhibition by little substance. Broadly, the inhibition is the share of the control response that was lost under treatment. Low values mean a weak effect, high ones a strong effect.

T1 sequence (P25105 whole entry): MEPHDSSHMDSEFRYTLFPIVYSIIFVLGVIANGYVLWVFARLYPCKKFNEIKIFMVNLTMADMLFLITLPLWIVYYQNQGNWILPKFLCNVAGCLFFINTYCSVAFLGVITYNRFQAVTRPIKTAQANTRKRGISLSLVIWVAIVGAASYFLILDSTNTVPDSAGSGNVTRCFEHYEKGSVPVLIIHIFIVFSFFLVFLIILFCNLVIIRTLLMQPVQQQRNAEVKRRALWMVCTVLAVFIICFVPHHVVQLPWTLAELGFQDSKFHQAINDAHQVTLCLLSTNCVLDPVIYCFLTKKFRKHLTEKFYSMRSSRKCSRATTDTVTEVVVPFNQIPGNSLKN

For `C(=Cc1ccccc1)Cn1ccnc1` [1-(3-phenyl-2-propenyl)1H-imidazole], in the assay with bronchoconstriction, the inhibiting bronchoconstriction entry is “effective in inhibiting”. Moreover, the “inhibiting arachidonic acid-induced platelet aggregation” value in assay [1] is on record as “effective in inhibiting”. Moreover, in the assay with thromboxane synthetase, the inhibiting thromboxane synthetase result is on record as “effective in inhibiting”.

`COc1cc(C(=O)N(C2CCCC2)C2CCCC2)ccc1Cn1cccc2ncnc1-2` [Example 1, N,N-dicyclopentyl-4-[(4H-imidazo[4,5-b]pyridin-4-yl)methyl]-3-methoxybenzamide]: the IC50 in assay [2] was 1050 nM. `COc1cc(Cn2cccc3ncnc2-3)ccc1C(=O)N(C(C)C)C1CCCCC1` [Example 2, N-cyclohexyl-4-[(4H-imidazo[4,5-b]pyridin-4-yl)methyl]-2-methoxy-N-(1-methylethyl)benzamide] showed an inhibition at 10 µM in assay [2] (at 10 μM) of 40%. `COc1cc(C(=O)N(C(C)C)C2CCCCC2)ccc1Cn1cccc2ncnc1-2` [Example 3, N-cyclohexyl-4-[(4H-imidazo[4,5-b]pyridin-4-yl)methyl]-3-methoxy-N-(1-methylethyl)benzamide] returned an IC50 in assay [2] of 643 nM. As to `COc1cc(Cn2cccc3ncnc2-3)ccc1C(=O)N(C1CCCC1)C1CC(C)CC(C)C1` (stereo not shown) [Example 4, N-cyclopentyl-N-(3,5-dimethylcyclohexyl)-4-[(4H-imidazo[4,5-b]pyridin-4-yl)methyl]-2-methoxybenzamide], the IC50 in assay [2] is 139 nM; in the assay with human platelets, 58 nM. In assay [2], `COc1cc(C(=O)N(C(C)C)C2CCCCC2)ccc1Cn1cccc2nc(C)nc1-2` [Example 5, N-cyclohexyl-3-methoxy-N-(1-methylethyl)-4-[(2-methyl-4H-imidazo[4,5-b]pyridin-4 yl]methyl]benzamide] gave an IC50 of 323 nM. The same measure, in the same setting: with `COc1cc(C(=O)N(C(C)C)C2CCCCC2)ccc1Cn1cccc2nc(CO)nc1-2` [Example 6, N-cyclohexyl-4-[[2-(hydroxymethyl)-4H-imidazo[4,5-b]pyridin-4-yl]methyl]-3 methoxy-N-(1-methylethyl)benzamide] the figure was 460 nM.

Turning to `COc1cc(C(=O)N(C(C)C)C2CCCCC2)ccc1Cn1cccc2nc(-c3ccccn3)nc1-2` [Example 7, N-cyclohexyl-3-methoxy-N-(1-methylethyl)-4-[[2-(2-pyridinyl)-4H-imidazo[4,5-b]pyridin-4-yl]methyl]benzamide], the IC50 in assay [2] was 732 nM.

In turn, `CC(C)N(C(=O)c1ccc(Cn2cccc3ncnc2-3)cc1)C1CCCCC1` [Example 9, N-cyclohexyl-4-[(4H-imidazo[4,5-b]pyridin-4 yl)methyl]-N-(1-methylethyl)benzamide] came in with an IC50 in assay [2] of 854 nM.

Take `CN(C(=O)c1ccc(Cn2cnc3cnccc32)cc1)C1CCCCC1` [N-cyclohexyl-N-methyl-4-(1H-imidazo[4,5-c]pyridin-1-yl-methyl)benzamide]: the “inhibition of PAF-induced aggregation” value in the assay with PAF-induced aggregation is recorded as “inhibitor of PAF-induced aggregation”.
